Results on eight molecules are retold here after publication PMC3517626, “Targeting Fatty Acid Binding Protein (FABP) Anandamide Transporters – A Novel Strategy for Development of Anti-Inflammatory and Anti-Nociceptive Drugs” (PLoS ONE, 2012).

The structures appear in SMILES notation. Converted amounts (≈) assume the structure as drawn.

A short description of one series: Solubility in DMSO. It counts as physicochemical. Particulars: in DMSO at 25°C.
Series [1] addresses T1, human FABP5 (Homo sapiens, UniProt Q01469).
T1 construct: FABP5 was purified and delipidated as described previously; made in house
Particulars: cited from earlier work.

For series [2], the target named is T1, human FABP5. The series is described as follows: Fluorescence displacement assay with NBD-stearate. It counts as binding. Particulars: test compound 10 µM, NBD-stearate 1 µM. The procedure:
FABP5 was purified and delipidated as described previously. FABP5 (30 µg), NBD-stearate (1 µM), and a competitor test compound were incubated in 30 mM Tris-HCl, 100 mM NaCl buffer (pH 7.6). Competitors included arachidonic acid, BMS309403, 48 test compounds from ChemDiv library, SB-FI-26 and SB-FI-49. The initial assay was run with buffer (30 mM Tris-HCl buffer), negative controls (buffer and NBD-stearate), positive controls (buffer, NBD-stearate, FABP5), and experimental wells with a variable test compound added (arachidonic acid or one of the 48 test compounds) at 10 µM. […] The fluorescent assays were tested in the wells of Microtest 96-well Assay Plates, Optilux (BD Biosciences, Franklin Lakes, NJ) and loss of fluorescence intensity was measured with a FLUOstar OPTIMA spectrofluorometer set to excitation and emission wavelengths of 460 nm and 544 nm, respectively. […] The Kd of NBD-stearate for FABP5 had been determined previously through incubating FABP5 with increasing concentrations of NBD-stearate.

Another series has as its system AEA uptake in HeLa cells. The series is described as follows: AEA uptake in HeLa cells. The series is classed as cell-based. The procedure:
AEA uptake assays in wild-type and FABP5 knockdown HeLa cells were performed exactly as described.

In a further series the target is T2, rat FAAH (Rattus norvegicus, UniProt P97612).
T2 construct: expressed in transfected cells; host or cells: HeLa (homogenates)
T2 sequence (P97612 1-579): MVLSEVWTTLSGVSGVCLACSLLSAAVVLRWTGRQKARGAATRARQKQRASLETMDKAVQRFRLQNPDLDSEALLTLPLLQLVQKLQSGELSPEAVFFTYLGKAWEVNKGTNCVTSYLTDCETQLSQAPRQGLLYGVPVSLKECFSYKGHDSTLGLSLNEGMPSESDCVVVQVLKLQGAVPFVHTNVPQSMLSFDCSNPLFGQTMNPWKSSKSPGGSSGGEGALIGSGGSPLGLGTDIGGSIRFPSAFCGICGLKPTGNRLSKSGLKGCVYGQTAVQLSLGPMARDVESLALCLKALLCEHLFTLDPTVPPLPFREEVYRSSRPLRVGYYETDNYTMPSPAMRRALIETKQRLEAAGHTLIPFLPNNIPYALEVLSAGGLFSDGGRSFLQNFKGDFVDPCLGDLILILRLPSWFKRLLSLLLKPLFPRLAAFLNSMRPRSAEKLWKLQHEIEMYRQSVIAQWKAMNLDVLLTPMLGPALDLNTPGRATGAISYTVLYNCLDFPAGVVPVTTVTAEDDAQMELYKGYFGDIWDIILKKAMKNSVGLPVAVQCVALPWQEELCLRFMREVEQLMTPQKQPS
The series is described as follows: FAAH enzyme assay ([14C]AEA hydrolysis in HeLa homogenates). It counts as biochemical. Particulars: FAAH-transfected HeLa homogenates. Here is the method:
Enzyme assays measuring the hydrolysis of [^14C]AEA in the presence of SB-FI-26 or the FAAH inhibitor URB597 were carried out in HeLa homogenates expressing rat FAAH as described.

In series [3] the test system is male C57Bl6 mice. The series is described as follows: Formalin test. The series is classed as in vivo. The procedure:
(§1) We used male C57Bl6 mice (22–30 g, Taconic Farms) for all experiments. The animals were group housed at room temperature and kept on a 12∶12 hour light∶dark cycle with ad libitum access to water and food. The animals were habituated to the experimental room for one week before testing.
Mice were habituated to the observation chamber (Plexiglas box, 25 cm×25 cm×25 cm) for 30 min prior to formalin injection. The mice subsequently received an injection of formalin (2.5% in saline, 20 µl) into the plantar surface of the right hind paw using a 27 gauge needle. The animals were immediately placed back into the observation chamber and nocifensive behavior (time spent licking or biting the paw) was recorded for 60 min. The formalin test consists of two phases with the first phase (0–5 min) reflecting nociceptor activation and the second phase (15–45 min) reflecting an inflammatory pain response.

Another series has as its target T3, PPARγ (Homo sapiens, UniProt P37231).
T3 construct: expressed in transfected cells; host or cells: HeLa
T3 sequence (P37231 1-505): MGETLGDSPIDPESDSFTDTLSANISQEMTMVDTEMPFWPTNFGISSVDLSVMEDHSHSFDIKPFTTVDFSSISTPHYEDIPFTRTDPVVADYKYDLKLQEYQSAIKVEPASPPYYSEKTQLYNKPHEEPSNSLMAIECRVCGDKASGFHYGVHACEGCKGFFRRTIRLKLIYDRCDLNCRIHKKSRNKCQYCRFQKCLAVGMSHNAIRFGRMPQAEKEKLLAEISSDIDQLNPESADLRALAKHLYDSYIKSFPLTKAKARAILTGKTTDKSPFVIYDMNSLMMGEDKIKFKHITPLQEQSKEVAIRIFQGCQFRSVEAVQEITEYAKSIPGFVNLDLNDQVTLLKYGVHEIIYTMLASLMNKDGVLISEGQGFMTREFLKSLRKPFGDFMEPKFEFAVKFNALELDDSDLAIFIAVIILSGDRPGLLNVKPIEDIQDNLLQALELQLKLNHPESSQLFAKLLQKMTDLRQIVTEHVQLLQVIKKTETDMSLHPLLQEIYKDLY
The series is described as follows: PPARγ transactivation in HeLa cells. It counts as cell-based. Particulars: reporter system, 6 hrs. The procedure:
(§2) PPARα and PPARγ transactivation assays were performed in HeLa cells exactly as described. Briefly, cells were transfected with the PPAR reporter system, incubated with GW7647, rosiglitazone, or SB-FI-26 for 6 hrs, followed by measurement of luciferase and β-galactosidase activity using a luminometer as described.

The subject of another series is CB1 receptors. The series is described as follows: Patch-clamp electrophysiology in brain slices (EPSCs of dorsal raphe 5-HT neurons). It counts as cell-based. Particulars: bath application 10 µM; DR 5-HT neurons; n = 8; mean ± SEM. The procedure:
Whole-cell-voltage clamp recordings of dorsal raphe (DR) serotonin (5-HT) neurons were performed as previously described. Briefly, DR neurons were visualized using an upright microscope (BX 51 WI, Olympus, Tokyo, Japan) equipped with a differential interference contrast and infrared imaging system. Somatic recordings from DR neurons were obtained with path electrodes ([…]) back-filled with potassium gluconate based internal solution of the following composition: 120 mM potassium gluconate, 10 mM KCl, 10 mM Na2-phosphocreatine, 10 mM HEPES, 1 mM MgCl2, 1 mM EGTA, 2 mM Na2-ATP, 0.25 mM Na-GTP, pH 7.3 (Adjusted with KOH; Osmolarity, 280 to 290 mOsmol/l). All the recordings were conducted in the presence of GABAA receptor antagonist picrotoxin (100 µM). Excitatory postsynaptic currents (EPSCs) were evoked with a single square stimulus (intensity, 1 to 10 V, duration, 100 to 200 µs) delivered via a glass stimulating electrode. […]
The amplitude of EPSCs was determined by measuring the average current during a 2-ms period at the peak of each EPSC and subtracted from the baseline current determined during a 5-ms time window before the stimulus. All EPSC amplitudes were normalized to the mean baseline amplitude recorded for at least 10 min before drug application. […]

The next series addresses T4, PPARα (Homo sapiens, UniProt Q07869).
T4 construct: expressed in transfected cells; host or cells: HeLa
T4 sequence (Q07869 1-468): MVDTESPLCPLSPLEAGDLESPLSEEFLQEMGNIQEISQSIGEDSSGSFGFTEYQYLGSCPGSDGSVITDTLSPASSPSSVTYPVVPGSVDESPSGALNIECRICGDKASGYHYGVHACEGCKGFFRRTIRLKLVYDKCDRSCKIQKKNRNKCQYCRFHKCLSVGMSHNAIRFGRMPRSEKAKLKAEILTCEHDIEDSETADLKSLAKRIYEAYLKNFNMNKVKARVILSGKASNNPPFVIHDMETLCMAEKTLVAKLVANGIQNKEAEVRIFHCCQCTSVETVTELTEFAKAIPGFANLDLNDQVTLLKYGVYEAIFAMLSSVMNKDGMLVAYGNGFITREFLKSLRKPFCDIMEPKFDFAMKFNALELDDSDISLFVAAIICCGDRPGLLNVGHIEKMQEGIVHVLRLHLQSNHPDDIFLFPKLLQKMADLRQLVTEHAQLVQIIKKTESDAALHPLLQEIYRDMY
The series is described as follows: PPARα transactivation in HeLa cells. The series is classed as cell-based. Particulars: reporter system, 6 hrs. Here is the method:
as §2

Series [4] concerns male C57Bl6 mice. The series is described as follows: Carrageenan-induced paw edema and thermal hyperalgesia. The series is classed as in vivo. Here is the method:
as §1
Paw edema was induced by injecting 1% λ-carrageenan (20 µl, in sterile saline) into the plantar surface of the left hind paw and a control solution of saline into the right hind paw using a 27 gauge needle. Paw diameters were measured before carrageenan injection and 4 hours after injection using digital electronic calipers (Fisher) and expressed to the nearest ±0.01 mm. SB-FI-26 (20 mg/kg, i.p.) was dissolved in ethanol∶emulphor∶saline (1∶1∶18), requiring sonication and gentle heating for solubilization, and administered 45 min prior to injection of carrageenan. The cannabinoid receptor antagonists, rimonabant and SR144528 (3 mg/kg, i.p.), in ethanol∶emulphor∶saline (1∶1∶18), were injected 15 min before the FABP inhibitor. Edema is reported as the change in paw diameter at 4 hr over the baseline. Changes in paw diameter of saline-injected contralateral paws were negligible. Thermal hyperalgesia measured the latency to withdraw the paw from a focused beam of radiant heat applied to the plantar surface of the hind paw using a Hargreaves plantar apparatus (Ugo Basile) set at an intensity of 3.0. For each mouse, the average latencies consisted of three trials spaced at least 5 minutes apart. The mice were habituated to the test chamber for 30 min. The cutoff time was set at 30 sec.

T1 sequence (Q01469 whole entry): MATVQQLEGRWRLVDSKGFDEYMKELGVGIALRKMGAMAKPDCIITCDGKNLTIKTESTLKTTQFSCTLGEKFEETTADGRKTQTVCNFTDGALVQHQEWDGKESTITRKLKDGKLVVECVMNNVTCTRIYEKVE

`CCc1c(-c2ccccc2)c(-c2ccccc2)nn1-c1ccccc1-c1cccc(OCC(=O)O)c1` [BMS309403, reference compound] registered a solubility in the series “Solubility in DMSO” of 1 mM (≈ 475 µg/mL).

As to `CCCCCCC(CCCCCCCCCCC(=O)O)N(C)c1ccc([N+](=O)[O-])c2nonc12` (centres unmarked) [NBD-stearate, 12-N-methyl-(7-nitrobenz-2-oxa-1,3-diazo)aminostearic acid], the dissociation constant (Kd) on human FABP5 [1] (one site binding analysis, determined previously, read-out: Kd of NBD-stearate for FABP5) is 160 nM.

For `COc1cccc([C@@H]2Oc3ccccc3[C@@H]3CC(c4cccs4)=CN32)c1CC(=O)O` [SB-FI-19], the inhibition at 10 µM at human FABP5 [2] is no less than 50%.

Molecule `O=C(O)[C@H]1[C@@H](c2ccccc2)[C@H](C(=O)Oc2cccc3ccccc23)[C@@H]1c1ccccc1` [SB-FI-26, α-Truxillic acid 1-naphthyl ester] showed a solubility in “Solubility in DMSO” of 1 mM (≈ 422 µg/mL). Further, the AEA uptake entry in the series on AEA uptake in HeLa cells (HeLa cells bearing a knockdown of FABP5 (shRNA)) is “failed to reduce AEA uptake”. Moreover, in the series with AEA uptake in HeLa cells (wild-type HeLa cells), the “cellular AEA accumulation (AEA uptake)” value is “significantly inhibited cellular AEA accumulation”. Also, on rat FAAH, the “inhibition of FAAH (AEA hydrolysis)” value is “does not inhibit FAAH”. The “nocifensive behavior, first phase of the formalin test” value in the series with male C57Bl6 mice [3] (20 mg/kg, i.p., first phase 0–5 min) is “significantly reduced nocifensive behavior”. Besides, the “nocifensive behavior when administered alone” value in the series on male C57Bl6 mice [3] (intraplantar injection of 20 µg, no formalin) is “did not evoke nocifensive behavior”. In addition, at PPARγ, the “activation of PPARγ” value is roughly 3 fold. Moreover, the “amplitude of EPSCs” value in the series on CB1 receptors was 107±6.7 % of baseline. Besides, at PPARα, the “activation of PPARα” value is reported as roughly 2 fold. Also, the carrageenan-induced thermal hyperalgesia entry in the series on male C57Bl6 mice [4] (20 mg/kg, i.p., 45 min prior to carrageenan) is given as “significantly reduced”. Moreover, the carrageenan-induced paw edema result in the series on male C57Bl6 mice [4] (20 mg/kg, i.p., 45 min prior to carrageenan, paw diameter at 4 hr) is on record as “significantly reduced”. Further, the “antinociceptive and anti-edematous effects after pretreatment with rimonabant and SR144528” value with male C57Bl6 mice [4] (SB-FI-26 20 mg/kg i.p., antagonists 3 mg/kg i.p. 15 min before) is “completely reversed”. Moreover, the “paw edema when administered alone” value in the series with male C57Bl6 mice [4] (without carrageenan) is “did not induce paw edema”.

`O=C(O)[C@H]1CC(=O)N(Cc2ccc3c(c2)OCO3)/C(=N/c2ccc(F)cc2)S1` [SB-FI-27] yielded an inhibition at 10 µM on human FABP5 [2] of no less than 50%.

On to `Cn1c(C(=O)O)c(CC(=O)N2CCC(Cc3ccccc3)CC2)c2ccccc21` [SB-FI-31], for which the inhibition at 10 µM on human FABP5 [2] is no less than 50%.

`O=C(O)[C@H]1[C@@H](c2ccccc2)[C@H](C(=O)Oc2cccc3ccccc23)[C@@H]1c1ccccc1` [SB-FI-49, γ-Truxillic acid 1-naphthyl ester]: the solubility in the series “Solubility in DMSO” is 0.2 mM (≈ 84.5 µg/mL).

In the case of `CCCCC/C=C\C/C=C\C/C=C\C/C=C\CCCC(=O)O` [arachidonic acid], the Ki on human FABP5 [1] (arachidonic acid, positive control, binding to FABP5, ref not given) was 130 nM.
